Test results from patent EP4778933A1 (Chengdu Hyperway Pharmaceuticals Co., Ltd., priority 2023, dated 2025).
Read-outs that look alike come from different tables or passages of the source.

Legend:
[1] = test system: KRAS G12D-mediated ERK phosphorylation; test: Inhibition of KRAS G12D-mediated ERK phosphorylation in AGS cells (in-cell pERK/GAPDH immunofluorescence); format: cell-based; details: AGS cells, 3 h incubation; read-out: Inhibitory activity on ERK phosphorylation (IC50) AGS-G12D
Experimental: (§1) Day 1: AGS cells, SW480 cells, NCI H358 cells, HCT116 cells, and KP2 cells were seeded into 384-well cell culture plates and cultured overnight in a 37°C, 5% CO2 incubator.
(§2) Day 2: The compounds were added to the plates using Echo550 and incubated for 3 h in a 37°C, 5% CO2 incubator. Then, cells fixed with paraformaldehyde, permeated with methanol and blocked with a blocking solution were added. Finally, a mixed solution of primary antibodies (rabbit anti pERK, mouse anti GAPDH) was added, and the mixture was incubated overnight at 4°C.
(§3) Day 3: The mixed solution of primary antibodies was discarded, and a mixed solution of secondary antibodies (goat anti rabbit 800 CW, goat anti mouse 680 RD) was added. The resulting mixture was incubated at room temperature in the dark. Finally, the cell culture plate was washed with PBST, and then inverted for 1 minute of centrifugation. The fluorescence signal values were read with Odyssey CLx.
(§4) ERK phosphorylation was calculated according to the following formula: [formula] • Negative control: DMSO • Positive control: 10 µM Reference • IC50 value was fitted and calculated by XLFit 5.0 using the parametric formula. • Y = Bottom+(Top-Bottom)/(1+10^((LogIC50-X)*HillSlope)) • X: log value of compound concentration. • Y: average value of relative expression of p-ERK between replicate wells.

[2] = test system: KRAS G12V-mediated ERK phosphorylation; test: Inhibition of KRAS G12V-mediated ERK phosphorylation in SW480 cells; format: cell-based; details: 3 h incubation, read-out: Inhibitory activity on ERK phosphorylation (IC50) SW480-G12V
Experimental: as §1, §2, §3, §4

[3] = test system: KRAS G12C-mediated ERK phosphorylation; test: Inhibition of KRAS G12C-mediated ERK phosphorylation in NCI H358 cells; format: cell-based; details: Homo sapiens, 3 h incubation, read-out: Inhibitory activity on ERK phosphorylation (IC50) NCI H358-G12C
Experimental: as §1, §2, §3, §4

[4] = test system: KRAS G13D-mediated ERK phosphorylation; test: Inhibition of KRAS G13D-mediated ERK phosphorylation in HCT116 cells; format: cell-based; details: Homo sapiens, HCT-116, 3 h incubation, read-out: Inhibitory activity on ERK phosphorylation (IC50) HCT116-G13D
Experimental: as §1, §2, §3, §4

[5] = test system: KRAS G12R-mediated ERK phosphorylation; test: Inhibition of KRAS G12R-mediated ERK phosphorylation in KP2 cells; format: cell-based; details: 3 h incubation, read-out: Inhibitory activity on ERK phosphorylation (IC50) KP2-G12R
Experimental: as §1, §2, §3, §4

[6] = In vivo pharmacokinetic test in mice; details: female BALB/c mice, oral, single dose 30 mg/kg, plasma; 30 mg/kg
Experimental: (§5) Each test compound was administered orally once to female BALB/c mice for pharmacokinetic study. The test compounds were prepared on the day of administration. The oral administration solvent: 50 mM sodium citrate (pH 5.0) + 10% captisol. The oral administration was conducted in a dose of 30 mg/kg. The animals were fasted for 10-14 h before oral administration, and the feeding was resumed 4 h after administration. Pharmacokinetic samples were collected through the orbit. The collection time points were: 15 min, 30 min, 1 h, 2 h, 4 h, 6 h, 8 h and 24 h after administration. Three whole blood samples were collected at each time point, with a collection volume of about 0.2 mL, and anticoagulated with sodium heparin. After blood samples were collected, they were immediately placed on ice and centrifuged within 1 h to isolate plasma (centrifugation conditions: 8000 rpm, 1 min, 2-8°C). The collected plasma was stored in a -20°C refrigerator before analysis. The concentrations of compounds in the plasma samples were determined using an LC-MS/MS analysis method.

GP2D (KRASG12D) = test: 3D cell proliferation inhibition test (CellTiter-Glo 3D, 7 days), GP2D; format: cell-based; details: 168 h, read-out: Inhibitory activity on cell proliferation (IC50) GP2D (KRASG12D)
Experimental: (§6) The diluted compounds to be tested were added to 384-well low-adhesion KRAS mutant types (such as GP2D, NCI H358, LoVo, RKN and KP2) of cell culture plates by using a nanoliter pipetting system (LABCYTE, P-0200). Then, the cells were plated and incubated in a 37°C, 5% CO2 incubator for 7 days. Afterward, CellTiter-Glo® 3D reagent was added, and the luminescent values were read by an Envision multifunctional microplate reader (the luminescent signal is proportional to the amount of ATP in the system, and the ATP content directly represents the number of viable cells in the system). Finally, the IC50 values (half-maximal inhibitory concentration) of the compounds were obtained by the XLFIT software using the nonlinear fitting formula.
(§7) • a) The diluted compounds to be tested were added to 384-well low-adhesion KRAS mutant types of cell culture plates by using a nanoliter pipetting system. • b) Cells were seeded into the 384-well plates in a) and then centrifuged at 1000 rpm for 1 min at room temperature, with a final DMSO concentration of compound being 0.5%. The plates were then incubated in a 5% CO2 constant-temperature incubator at 37°C for 7 days. • c) CellTiter-Glo® 3D was added to the 384-well cell culture plates in b), shaken in the dark, and incubated at room temperature. • d) The luminescence values were read by using an Envision multifunctional microplate reader.
(§8) The IC50 (half-maximal inhibitory concentration) values of the compounds were obtained by using XLFIT software according to the following nonlinear fitting formula: Y = Bottom + (Top−Bottom)/(1+10^(∧)((LogIC50−X)×HillSlope)) [formula] • X: log value of compound concentration. • Y: inhibition rate (%) [formula] • Negative control: DMSO. • Positive control: Medium only.

RKN (KRAS G12V) = test: 3D cell proliferation inhibition test (CellTiter-Glo 3D, 7 days), RKN; format: cell-based; details: 168 h, read-out: Inhibitory activity on cell proliferation (IC50) RKN (KRAS G12V)
Experimental: as §6, §7, §8

[7] = In vivo pharmacokinetic test in rats; parameters: species or system SD Rats; details: Sprague-Dawley (SD), rat; male rats, oral, single dose 30 mg/kg, plasma
Experimental: as §5, with “once to male […] rats” for “once to female BALB/c mice”, “male BALB/c rats for pharmacokinetic” for “female BALB/c mice for pharmacokinetic”, “administration. The intravenous administration solvent: 5% DMSO + 10% solutol + 85% saline; and the oral administration” for “administration. The oral administration”, “points were: 5 min (intravenous administration), 15 min,” for “points were: 15 min,”, “analysis method. Table 4: Pharmacokinetic test results of some compounds in SD Rats” for “analysis method.”

[8] = test system: human ovarian cancer RKN mouse xenograft tumors; test: In vivo drug efficacy, RKN subcutaneous xenograft tumor model; parameters: species or system Balb/c nude mice; details: 50 mg/kg, PO
Experimental: A subcutaneous xenograft tumor model of human ovarian cancer RKN (derived from uterine leiomyosarcoma) cells was established in Balb/c nude mice. RKN tumor cells resuspended in Ham's F12 medium were inoculated subcutaneously on the right side of the experimental animals at 5×10^6 + gel/0.1 mL. When the tumor grew to about 150-200 mm^3, 20 animals having relatively uniform tumor volumes were selected for group administration, with a total of 4 groups, 5 animals in each group. On the day of the experiment, the animals were given the corresponding drugs according to the groups. The first group G1 was set as a solvent group, and 50 mM citrate buffer (pH 5.0) + 10% Captisol was given by gavage alone. The second group G2 was given a 50 mM citrate buffer (pH 5.0) + 10% Captisol of compound 21. The third group G3 was given a 50 mM citrate buffer (pH 5.0) + 10% Captisol of compound 26. The fourth group G4 was given a 50mM citrate buffer (pH 5.0) + 10% Captisol of compound 31. Table 7: Study on effect of test substances on animal tumor size in the human ovarian cancer RKN mouse xenograft tumor model
During the experiment, the body weight and tumor size of the animals were measured twice a week, and the clinical symptoms of the animals were observed and recorded every day. Each drug administration was based on the most recent weighing of the animals.
The tumor was measured with a digital vernier caliper to measure the length (a) and width (b). The tumor volume (TV) was calculated using the following formula: TV = a × b^2 /2. [formula]

Row | Compound | IC50 [1] [nM] | IC50 [2] [nM] | IC50 [3] [nM] | IC50 [4] [nM] | IC50 [5] [nM] | AUC [6] [ng·h/mL] | Cmax [6] [ng/mL] | IC50 ([2]; Homo sapiens, SW480, 3 h) [nM] | IC50 (GP2D (KRASG12D)) [nM] | IC50 (RKN (KRAS G12V)) [nM] | AUC [7] [ng·h/mL] | Cmax [7] [ng/mL] | inhibitory effects on human ovarian cancer RKN mouse xenograft tumors ([8]; BID, 28 days) | Tumor volume inhibition rate (TGI) ([8]; RKN xenograft, BID × 28, day 28) [%]
1 | CC1(O)COCCN(c2nc(OCC34CCCN3C(c3cc(F)c(F)c(F)c3)CC4)nc3c(F)c(-c4ccc(F)c5sc(N)c(C#N)c45)c(Cl)cc23)C1 (single isomer, unassigned) [Example 12, 2-amino-4-[6-chloro-8-fluoro-4-(6-hydroxy-6-methyl-1,4-oxazepan-4-yl)-2-({[3-(3,4,5-trifluorophenyl)-2,3,5,6,7,7a-hexahydro-1H-pyrrolizin-7a-yl]methyl}oxy)quinazolin-7-yl]-7-fluorobenzo[b]thiophene-3-carbonitrile] | 3.3 | 2.4 | 3.1 | 63 | 148 | 37427 | 5544 | – | – | – | – | – | – | –
2 | CC1(O)COCCN(c2nc(OCC34CCCN3C(c3cc(F)c(F)c(F)c3)CC4)nc3c(F)c(-c4cccc5sc(N)c(C#N)c45)c(Cl)cc23)C1 (single isomer, unassigned) [Example 21, 2-amino-4-[6-chloro-8-fluoro-4-(6-hydroxy-6-methyl-1,4-oxazepan-4-yl)-2-({[3-(3,4,5-trifluorophenyl)-2,3,5,6,7,7a-hexahydro-1H-pyrrolizin-7a-yl]methyl}oxy)quinazolin-7-yl]benzo[b]thiophene-3-carbonitrile] | 4.7 | – | 2.04 | 45 | 146 | 30872 | 5218 | 7.8 | 4.26 | 7.23 | 5290 | 866 | significant inhibitory effects | 109
